Test results reported in patent EP0623350A1, “Use of Bradykinin-antagonists for the manufacture of a medicament for the prophylaxis and treatment of arteriosclerosis” (HOECHST AKTIENGESELLSCHAFT, priority 1993, dated 1994).

Legend:
Format in all cases: in vivo, weißen Kaninchen (New Zealand)
[1] = system: atherosklerotischen Plaques in der Aorta; experiment: Atherosclerotic plaques in the aorta of cholesterol-fed rabbits (Oil Red O staining, image analysis)
Source text: (§1) Der Versuch wurde mit weißen Kaninchen (New Zealand) männlichen Geschlechts mit einem Gewicht von 3-4 Kilogramm in Anlehnung an die publizierten Methoden nach A. Kisanuki, Y. Asada, K. Hatakeyama, T. Hayashi und A. Sumiyoshi: Contributions of the Endothelium to Intimal Thickening in Normocholesterolemic and Hypercholesterolemic Rabbits, Arteriosclerosis and Thrombosis (1992), 12; 1198 - 1205 und J. Cooke, A. Singer, P. Tsao, P. Zera, R.Rowan and M. Billingham: Antiatherogenic Effects of L-Arginine in the Hypercholesterolemic Rabbit(1992), 90; 1168 - 1172 durchgeführt. Nach einer Woche unter Standard-Kaninchenfutter (Altromin 2834, Lage-Lippe, Deutschland) wurden zwei Gruppen mit je 15 Kaninchen drei Monate lang mit cholesterinreicher Diät gefüttert. Die Diät enthielt 0.25% Cholesterin und 3% Kokosnußöl. Eine der beiden Gruppen erhielt zusätzlich eine subkutane Dauerinfusion von HOE 140 über implantierte osmotische Minipumpen über den gesamten Zeitraum von drei Monaten. Die Dosis betrug 100 µg/kg/Tag.
(§2) Eine weitere Gruppe von 15 Kaninchen, die nicht-atherogene normale Diät erhielt, diente als negative Kontrolle. Futter und Wasser wurden ad libitum gegeben. Der Nachweis, daß die gewählte Dosis HOE 140 die Wirkung endogener Kinine hemmen kann, wurde über die Hemmung der blutdrucksenkenden Wirkung von exogenem Bradykinin geführt. Am Ende des Versuches, nach dreimonatiger Behandlung, wurden die Tiere narkotisiert und der basale Blutdruck gemessen. Der basale Blutdruck lag zwischen 100 und 110 mm Hg. Nach der Messung des basalen Blutdrucks wurde Bradykinin intraarteriell als Bolus in einer Dosis von 10 ng injiziert. Bei den Tieren mit normalem Futter führte dies zu einem Blutdruckabfall von 21 mm Hg, bei den Tieren mit atherogener Diät betrug der Blutdruckabfall 24 mm Hg. Bei Kaninchen mit atherogener Diät, die mit HOE 140 behandelt wurden, fiel der Blutdruck nur noch um 3.7 mm Hg, was eine effektive Hemmung der Bradykininwirkung durch HOE 140 anzeigte.
(§3) Danach wurden die Kaninchen mit einer hohen Dosis von Pentobarbital (40 mg/kg) getötet und eine komplette Autopsie durchgeführt. Die atherosklerotischen Plaques wurden durch Öl-Rot O ([…]) sichtbar gemacht, ihr Ausmaß mittels eines Bildanalysators quantifiziert und die prozentuale Plaquegröße in der Aorta bestimmt. Weiterhin wurden die Cholesterinfraktionen (HDL, LDL und VLDL) im Serum mit Hilfe der Ultrazentrifugation bestimmt.

[2] = system: Serum Lipoprotein Fraktionen; experiment: Serum cholesterol/lipoprotein fractions (HDL, LDL, VLDL) by ultracentrifugation in cholesterol-fed rabbits
Source text: as §1, §3

[3] = system: blutdrucksenkenden Wirkung von exogenem Bradykinin; experiment: Inhibition of the blood-pressure-lowering effect of exogenous bradykinin in anaesthetised rabbits; conditions: Bradykinin 10 ng intra-arterial bolus; anaesthetised rabbits on atherogenic diet after 3 months HOE 140 100 µg/kg/Tag s.c.; untreated controls 21 and 24 mm Hg
Source text: as §2

[4] = atherogenic diet 3 months plus HOE 140 100 µg/kg/Tag s.c. continuous infusion, mean ± S.E.M.

SMILES: N=C(N)NCCC[C@@H](N)C(=O)N[C@@H](CCCNC(=N)N)C(=O)N1CCC[C@H]1C(=O)N1C[C@H](O)C[C@H]1C(=O)NCC(=O)N[C@@H](Cc1cccs1)C(=O)N[C@@H](CO)C(=O)N1Cc2ccccc2C[C@@H]1C(=O)N1[C@H](C(=O)N[C@@H](CCCNC(=N)N)C(=O)O)C[C@@H]2CCCC[C@@H]21 [HOE 140]
- Plaques in der Aorta: Fläche in Prozent der Intimafläche, Thorakale Aorta [1, 4]: 1.6 ± 1.1 Prozent der Intimafläche
- Plaques in der Aorta: Fläche in Prozent der Intimafläche, Aortenbogen ([1]; atherogenic diet (0.25% Cholesterin, 3% Kokosnußöl) 3 months plus HOE 140 100 µg/kg/Tag s.c. continuous infusion, mean ± S.E.M.): 23.4 ± 5.4 Prozent der Intimafläche
- Plaques in der Aorta: Fläche in Prozent der Intimafläche, Abdominelle Aorta 1 ([1]; first section of abdominal aorta, atherogenic diet 3 months plus HOE 140 100 µg/kg/Tag s.c. continuous infusion, mean ± S.E.M.): 1.4 ± 0.6 Prozent der Intimafläche
- Arteriosklerotische Veränderungen der Gefäßwände ([1]; result in words, cholesterol-fed rabbits treated with HOE 140): stark reduziert
- Atherosklerotische Veränderungen des Aortenbogens und der Aortenabschnitte in Brust und Bauch ([1]; result in words, versus atherogenic diet alone): bei weitem geringer
- Plaques in der Aorta: Fläche in Prozent der Intimafläche, Abdominelle Aorta 2 ([1]; second section of abdominal aorta, atherogenic diet 3 months plus HOE 140 100 µg/kg/Tag s.c. continuous infusion, mean ± S.E.M.): 7.0 ± 1.5 Prozent der Intimafläche
- Serum Lipoprotein Fraktionen, HDL [2, 4]: 4981 ± 576 µg/mL
- Serum Lipoprotein Fraktionen, LDL [2, 4]: 168 ± 21 µg/mL
- Serum Lipoprotein Fraktionen, VLDL [2, 4]: 250 ± 12 µg/mL
- HDL-Werte ([2]; result in words, HDL raised by cholesterol-rich diet): keinen Einfluß
- LDL und VLDL (Serumlipide) ([2]; result in words, versus atherogenic diet alone, hardly distinguishable from normal-diet controls): stark erniedrigt
- Blutdruckabfall nach Bradykinin [3]: 3.7 mm Hg
